From patent publication US20100137208A1, “INTRATUMORALLY ADMINISTERED LACTOFERRIN IN THE TREATMENT OF MALIGNANTNEOPLASMS AND OTHER HYPERPROLIFERATIVE DISEASES” (priority 2002, published 2010) come the findings set out here.

Molecules are shown by their SMILES.

The test system of assay [1] is murine squamous carcinoma cell line (SCCVII). The assay is described as follows: SCCVII floor-of-mouth tumor growth, docetaxel with or without oral rhLF. In kind it is in vivo, C3H mice. Conditions: docetaxel i.v. bolus 31.3 mg/kg Day 8, in combination rhLF 200 mg/kg oral days 5 to 12. Here is the method:
A murine squamous carcinoma cell line (SCCVII) was injected into the floor of the mouth through the neck skin of immunocompetent C3H mice (Day 0) as described in Example 7. On Day 5 after initial implantation, tumors were measured for the baseline, then treated with either oral placebo alone (once daily from days 5 to 12; 6 animals), placebo and docetaxel (i.v. bolus of 31.3 mg/kg docetaxel on Day 8; 9 animals), or docetaxel plus oral rhLF (200 mg/kg, administered once daily by gavage from days 5 to 12; 9 animals). Animals were sacrificed on Day 14 and tumors measured. Docetaxel alone caused an inhibition of tumor growth relative to placebo and the combination of rhLF and docetaxel induced a further growth inhibition.

Assay [2] has the same test system. Description: SCCVII floor-of-mouth tumor growth, oral rhLF and/or cisplatin. The following applies: in combination rhLF 200 mg/Kg oral days 5-12. In kind it is in vivo, C3H mice. Here is the method:
A murine squamous carcinoma cell line (SCCVII) was injected into the floor of the mouth through the neck skin of immunocompetent C3H mice (Day 0). […] Tumors were measured in three dimensions with calipers.
Tumor-bearing mice were randomized into a control group and seven groups receiving rhLF and/or cisplatin. RhLF (4 mg; 200 mg/Kg) was administered once daily by oral gavage for 8 days on days 5 through 12. Cisplatin was administered as a single dose of 5 mg/Kg given intraperitoneally either at the start of rhLF (day 5), in the middle (day 8) or at the end (day 12) of rhLF therapy. Animals were sacrificed on day 12 post-implantation and the residual tumor masses were measured and processed for later additional analyses.
A murine squamous carcinoma cell line (SCCVII) was injected into the floor of the mouth through the neck skin of immunocompetent C3H mice (Day 0) as described in Example 6. On Day 5 days after initial implantation, tumors were measured for the baseline, then treated with either cisplatin (Day 8, i.p., 5 mg/kg) alone or cisplatin plus three doses of oral rhLF (daily by gavage for 7-8 days on days 5 through 11/12). Animals were sacrificed on Day 11/12 and tumors measured.

`CC(=O)O[C@@]12CO[C@@H]1C[C@H](O)[C@@]1(C)C(=O)[C@H](O)C3=C(C)[C@@H](OC(=O)[C@H](O)[C@@H](NC(=O)OC(C)(C)C)c4ccccc4)C[C@@](O)([C@@H](OC(=O)c4ccccc4)[C@H]21)C3(C)C` [Docetaxel]: the “TGI (%) Relative to Placebo” value in assay [1] (Day 14) was 59%. For the same compound, the “Tumor Growth” value in assay [1] (measured Day 14) is reported as 2,103.

For the compound `N.N.[Cl][Pt][Cl]` [CP, Cisplatin], the “TGI (%) Relative to Placebo” value in assay [2] (cisplatin 5 mg/Kg i.p. on day 5) stood at 68%; in assay [2] (cisplatin 5 mg/Kg i.p. on day 8) it was 6%; in assay [2] (cisplatin 5 mg/Kg i.p. on day 12), 42%; in assay [2] (pooled cisplatin schedules (day 5, 8, 12)), 38%.
